Source: the supplement of paper PMC10307832

Columns and labels:
Test in all cases: relative viability (nuclei count vs DMSO), 5 days (fraction); higher = more cells survive
[1] = compound: CC1=C(C(=NN1)C)CC2=C(C3=C(S2)N(C(=O)N(C3=O)C)CC(C)C)C(=O)N4C[C@@H](CO4)O + CC(C)C[C@H](NC(=O)[C@H](Cc1ccccc1)NC(=O)c1cnccn1)B(O)O [Bortezomib] (partner 0.002 µM)
Method in brief: (§1)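 Five library-drug doses in √10 steps were combined with a fixed anchor-drug dose, or a single drug was given alone, by pin tool to lung cancer cell lines in 1536-well plates the day after seeding. Nuclei were stained and counted after 5 days. Relative viability is the nuclei count in treated wells over that in vehicle wells, taken as the median of duplicate plates.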

[2] = compound: CC1=C(C(=NN1)C)CC2=C(C3=C(S2)N(C(=O)N(C3=O)C)CC(C)C)C(=O)N4C[C@@H](CO4)O + C[C@]1(O)C[C@@H](c2nc(-c3ccc4ccc(-c5ccccc5)nc4c3)c3c(N)nccn32)C1 [Linsitinib] (partner 1 µM)
Method in brief: as §1

IDH-C35 + Palbociclib = compound: Cc1ccccc1C(C(=O)NC1CCCCC1)N(C(=O)Cn1ccnc1C)c1cccc(F)c1 [IDH-C35] + CC(=O)c1c(C)c2cnc(Nc3ccc(N4CCNCC4)cn3)nc2n(C2CCCC2)c1=O [Palbociclib] (partner 0.5 µM)
Method in brief: as §1

IDH-C35 + Dasatinib = compound: Cc1ccccc1C(C(=O)NC1CCCCC1)N(C(=O)Cn1ccnc1C)c1cccc(F)c1 [IDH-C35] + Cc1nc(Nc2ncc(C(=O)Nc3c(C)cccc3Cl)s2)cc(N2CCN(CCO)CC2)n1 [Dasatinib] (partner 0.075 µM)
Method in brief: as §1

Row | Cell Line | relative viability ([1]; first compound 0.0025 µM) | relative viability ([1]; first compound 0.007906 µM) | relative viability ([1]; first compound 0.025 µM) | relative viability ([1]; first compound 0.07906 µM) | relative viability ([1]; first compound 0.25 µM) | relative viability ([2]; first compound 0.0025 µM) | relative viability ([2]; first compound 0.007906 µM) | relative viability ([2]; first compound 0.025 µM) | relative viability ([2]; first compound 0.07906 µM) | relative viability ([2]; first compound 0.25 µM) | relative viability (IDH-C35 + Palbociclib; first compound 0.08 µM) | relative viability (IDH-C35 + Palbociclib; first compound 0.253 µM) | relative viability (IDH-C35 + Palbociclib; first compound 0.8 µM) | relative viability (IDH-C35 + Palbociclib; first compound 2.53 µM) | relative viability (IDH-C35 + Palbociclib; first compound 8 µM) | relative viability (IDH-C35 + Dasatinib; first compound 0.08 µM) | relative viability (IDH-C35 + Dasatinib; first compound 0.253 µM) | relative viability (IDH-C35 + Dasatinib; first compound 0.8 µM) | relative viability (IDH-C35 + Dasatinib; first compound 2.53 µM) | relative viability (IDH-C35 + Dasatinib; first compound 8 µM)
1 | 201T | 1.15 | 1.07 | 1.03 | 1.06 | 1.12 | 1.06 | 0.988 | 1.03 | 1.1 | 1.06 | 0.361 | 0.375 | 0.346 | 0.351 | 0.343 | 0.575 | 0.569 | 0.607 | 0.582 | 0.529
2 | A549 |  |  |  |  |  | 0.591 | 0.624 | 0.574 | 0.72 | 0.649 |  |  |  |  |  |  |  |  |  | 
3 | A-427 | 0.945 | 1 | 1.03 | 0.975 | 0.944 | 1.09 | 1.22 | 1.08 | 1.08 | 1.14 | 0.529 | 0.527 | 0.511 | 0.512 | 0.545 | 0.738 | 0.636 | 0.685 | 0.702 | 0.658
4 | ABC-1 | 0.342 | 0.304 | 0.304 | 0.394 | 0.335 | 0.676 | 0.793 | 0.905 | 1.27 | 0.8 | 0.765 | 0.819 | 0.491 | 0.785 | 0.824 | 0.583 | 0.58 | 0.485 | 0.476 | 0.631
5 | BEN | 0.772 | 0.74 | 0.532 | 0.675 | 0.665 | 0.932 | 0.79 | 0.762 | 0.663 | 0.862 | 0.433 | 0.514 | 0.466 | 0.481 | 0.463 | 0.308 | 0.373 | 0.289 | 0.333 | 0.293
6 | CAL-12T | 1.07 | 0.978 |  | 0.891 | 0.926 | 0.899 | 0.853 | 0.845 | 0.807 | 1.11 | 0.524 | 0.575 | 0.414 | 0.525 | 0.408 | 0.39 | 0.613 | 0.411 | 0.496 | 0.396
7 | COR-L23 | 1.07 | 0.895 | 0.888 | 0.754 | 0.865 | 0.975 | 0.859 | 0.601 | 0.788 | 0.713 | 0.31 | 0.294 | 0.305 | 0.311 | 0.315 | 0.479 | 0.438 | 0.48 | 0.443 | 0.445
8 | COR-L 105 | 0.841 | 0.763 | 0.882 | 0.73 | 0.802 | 1.1 | 0.943 | 0.853 | 0.961 | 0.95 | 0.417 | 0.413 | 0.41 | 0.407 | 0.401 | 0.394 | 0.394 | 0.403 | 0.323 | 0.349
9 | Calu-6 | 1.05 | 1.05 | 0.904 | 1.12 | 1.09 | 0.974 | 0.933 | 0.877 | 0.907 | 0.952 |  |  |  |  |  |  |  |  |  | 
10 | ChaGo-K-1 | 0.906 | 0.859 |  | 1.11 | 1.35 |  |  |  |  |  | 0.921 | 0.907 | 0.92 | 0.898 | 0.983 | 0.64 | 0.615 | 0.598 | 0.63 | 0.601
11 | EBC-1 | 0.602 | 0.553 | 0.588 | 0.639 | 0.648 | 0.989 | 0.847 | 0.805 | 1.05 | 1.08 |  |  |  |  |  |  |  |  |  | 
12 | EKVX | 1.02 | 1.33 | 1.07 | 0.992 | 1.03 | 0.978 | 1.05 | 0.939 | 1.05 | 1.04 | 0.402 | 0.365 | 0.385 | 0.356 | 0.373 | 0.568 | 0.53 | 0.57 | 0.494 | 0.61
13 | EMC-BAC-2 | 1.15 | 1.15 | 1.04 | 1.06 | 1.1 | 0.816 | 0.892 | 0.821 | 0.826 | 0.881 | 0.522 | 0.505 | 0.563 | 0.543 | 0.497 | 0.355 | 0.346 | 0.348 | 0.298 | 0.281
14 | EPLC-272H | 0.919 | 0.874 | 0.971 | 1.01 | 0.925 | 1.24 | 1.13 | 1.32 | 0.986 | 1.27 | 0.294 | 0.347 | 0.353 |  | 0.316 | 0.432 | 0.357 | 0.506 | 0.653 | 0.323
15 | H3255 | 0.819 | 0.79 | 0.734 | 0.758 | 1.02 | 1.06 | 0.881 | 0.909 | 1.01 | 1.11 | 0.315 | 0.281 | 0.337 | 0.305 | 0.326 | 0.406 | 0.415 | 0.306 | 0.453 | 0.331
